Assay results published in publication PMC8222254, “Self-assembly of an anion receptor with metal-dependent kinase inhibition and potent in vitro anti-cancer properties” (Nature Communications, 2021).
Several values for one entry are separate records, joined by “and”; a condition that tells them apart may be missing. Equal entries are not always repeated. Where two headings read alike, the source gives them in different places.

Columns and labels:
Experiment in all cases: Chemosensitivity, 96 h continuous exposure, MTT assay;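 as to SI (NPI): adult human brain neural progenitor non-cancer cells from an epilepsy surgery patient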;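 as to Selectivity Index using the NPI non-cancer cell line: adult human brain neural progenitor non-cancer cells from an epilepsy surgery patient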
Format in all cases: cell-based, human
A549 = test system: A549;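 as to SI (NPI): adult human brain neural progenitor non-cancer cells from an epilepsy surgery patient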;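 as to Selectivity Index using the NPI non-cancer cell line: adult human brain neural progenitor non-cancer cells from an epilepsy surgery patient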
How it was run: (§1)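 Cells were seeded overnight at 37 °C (2 × 10^3/well; GBM1 at 3 × 10^3/well on poly-L-ornithine/laminin in Neurobasal with hFGF/rhEGF), then exposed to compound concentration ranges for 96 h. Viability was read by MTT (4 h, formazan in DMSO, A540) and IC50 taken from dose–response curves.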

ARPE-19 non-cancer cells = test system: ARPE-19 non-cancer cells
How it was run: as §1

H460 = test system: H460
How it was run: (§2)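 H460 lung and PSN1 pancreatic carcinoma lines, grown in RPMI-1640 with 10% FBS, were plated at 2 × 10^3 cells/well, dosed across a concentration range for 96 h, then given MTT for 4 h. Formazan absorbance at 540 nm gave IC50 values.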

HCT116 p53-/- = conditions: for SI (ARPE19): mean IC50 ARPE-19 / mean IC50 HCT116 p53-/-; for SI (MCF10A): mean IC50 MCF10A / mean IC50 HCT116 p53-/-
How it was run: as §1

HT-29 = test system: HT-29
How it was run: as §1

MiaPaCa2 = test system: MiaPaCa2
How it was run: as §1

PSN1 = test system: PSN1
How it was run: as §2

With `CC(=O)[O-].CC(=O)[O-].CC(=O)[O-].CC(=O)[O-].CC(=O)[O-].CC(=O)[O-].[Zn+2].[Zn+2].[Zn+2].c1ccc(-c2csc(NCCN(CCNc3nc(-c4ccccn4)cs3)CCNc3nc(-c4ccccn4)cs3)n2)nc1.c1ccc(-c2csc(NCCN(CCNc3nc(-c4ccccn4)cs3)CCNc3nc(-c4ccccn4)cs3)n2)nc1` [[L2Zn3]6+] the IC50 (A549; A549, 96 h, MTT, individual run, read-out: IC50 values for each replicate) was 161 nM and 257 nM and 503 nM and 692 nM, the IC50 (A549; A549, 96 h, MTT, mean of at least 3 independent experiments, read-out: Mean IC50) was 403 nM and the IC50 (A549; A549, mean of replicates, read-out: Mean IC50) was 403 nM. For the same molecule, the IC50 (A549; A549, read-out: Mean IC50 values) was 403 nM, the “Selectivity index (ARPE19)” value (A549; IC50 ARPE-19 / IC50 A549) was 390.20 and the “Selectivity index (MCF10A)” value (A549; IC50 MCF10A / IC50 A549) was 401.09. For the same molecule, the “Selectivity Index using the NPI non-cancer cell line” value (A549; IC50 NP1 / IC50 A549) was 19.31, the “SI (ARPE19)” value (A549; mean IC50 ARPE-19 / mean IC50 A549) was 390.20 and the “SI (MCF10A)” value (A549; mean IC50 MCF10A / mean IC50 A549) was 401.09. For the same molecule, the “SI (NPI)” value (A549; mean IC50 NP1 / mean IC50 A549) was 19.31, the “Relative potency (+ anion to no anion), Ratio + anion:no anion” value (shortened to “Relative potency … Ratio + anion:no anion”) (A549; ratio of IC50, A549) was 1 and the “Selectivity indices relative to ARPE-19, Ratio + anion:no anion” value (A549; ratio of SI (ARPE-19), A549) was 1. For the same molecule, the “Selectivity indices relative to MCF10A, Ratio + anion:no anion” value (A549; ratio of SI (MCF 10A), A549) was 1, the IC50 (ARPE-19 non-cancer cells; ARPE-19, 96 h, MTT, individual run, read-out: IC50 values for each replicate) was 154 µM and 160 µM and 144 µM and 171 µM and the IC50 (ARPE-19 non-cancer cells; ARPE-19, 96 h, MTT, mean of at least 3 independent experiments, read-out: Mean IC50) was 157 µM. The IC50 (ARPE-19 non-cancer cells; ARPE-19, mean of replicates, read-out: Mean IC50) was 157 µM, the IC50 (ARPE-19 non-cancer cells; ARPE-19 non-cancer, read-out: Mean IC50 values) was 157 µM and the “Relative potency … Ratio + anion:no anion” value (ARPE-19 non-cancer cells; ratio of IC50, ARPE-19) was 1. The IC50 (H460; H460, 96 h, MTT, individual run, read-out: IC50 values for each replicate) was 186 nM and 273 nM and 557 nM and 236 nM and 441 nM and 594 nM and 235 nM, the IC50 (H460; H460, 96 h, MTT, mean of at least 3 independent experiments, read-out: Mean IC50) was 360 nM and the IC50 (H460; H460, mean of replicates, read-out: Mean IC50) was 360 nM. For the same molecule, the IC50 (H460; H460, read-out: Mean IC50 values) was 360 nM, the “Selectivity index (ARPE19)” value (H460; IC50 ARPE-19 / IC50 H460) was 436.81 and the “Selectivity index (MCF10A)” value (H460; IC50 MCF10A / IC50 H460) was 449.00. For the same molecule, the “Selectivity Index using the NPI non-cancer cell line” value (H460; IC50 NP1 / IC50 H460) was 21.61, the “SI (ARPE19)” value (H460; mean IC50 ARPE-19 / mean IC50 H460) was 436.81 and the “SI (MCF10A)” value (H460; mean IC50 MCF10A / mean IC50 H460) was 449.00. For the same molecule, the “SI (NPI)” value (H460; mean IC50 NP1 / mean IC50 H460) was 21.61, the “Relative potency … Ratio + anion:no anion” value (H460; ratio of IC50, H460) was 1 and the “Selectivity indices relative to ARPE-19, Ratio + anion:no anion” value (H460; ratio of SI (ARPE-19), H460) was 1. The “Selectivity indices relative to MCF10A, Ratio + anion:no anion” value (H460; ratio of SI (MCF 10A), H460) was 1, the IC50 (HCT116 p53-/-; HCT116 p53-/-, 96 h, MTT, individual run, read-out: IC50 values for each replicate) was 61 nM and 91 nM and 64 nM and the IC50 (HCT116 p53-/-; HCT116 p53-/-, 96 h, MTT, mean of at least 3 independent experiments, read-out: Mean IC50) was 72 nM. The IC50 (HCT116 p53-/-; HCT116 p53-/-, 96 h, MTT, read-out: IC50) was 70 ± 13 nM, the IC50 (HCT116 p53-/-; HCT116 p53-/-, mean of replicates, read-out: Mean IC50) was 75 nM and the IC50 (HCT116 p53-/-; HCT116 p53-/-, read-out: Mean IC50 values) was 72 nM. For the same molecule, the IC50 (HCT116 p53-/-; HCT116 p53-/-, single replicate, read-out: IC50 values for each replicate) was 79 nM and 86 nM, the “Selectivity index (ARPE19)” value (HCT116 p53-/-; IC50 ARPE-19 / IC50 HCT116 p53-/-) was 2184.03 and 2183.99 and the “Selectivity index (MCF10A)” value (HCT116 p53-/-; IC50 MCF10A / IC50 HCT116 p53-/-) was 2245.00. For the same molecule, the “Selectivity Index using the NPI non-cancer cell line” value (HCT116 p53-/-; IC50 NP1 / IC50 HCT116 p53-/-) was 108.06, the “more active towards HCT116 p53-/- than HCT116 p53+/+” value (HCT116 p53-/-; based on 96h IC50 values) was ~ 6 fold and the “SI (ARPE19)” value (HCT116 p53-/-) was 2184.03. For the same molecule, the “SI (ARPE19)” value (HCT116 p53-/-; listed as [L2Zn3]^6+) was “over 2000”, the “SI (MCF10A)” value (HCT116 p53-/-) was 2245.00 and the “SI (MCF10A)” value (HCT116 p53-/-; listed as [L2Zn3]^6+) was “over 2000”. For the same molecule, the “SI (NPI)” value (HCT116 p53-/-; mean IC50 NP1 / mean IC50 HCT116 p53-/-) was 108.06, the “Relative potency … Ratio + anion:no anion” value (HCT116 p53-/-; ratio of IC50, HCT116 p53-/-) was 1 and the “Selectivity indices relative to ARPE-19, Ratio + anion:no anion” value (HCT116 p53-/-; ratio of SI (ARPE-19), HCT116 p53-/-) was 1. For the same molecule, the “Selectivity indices relative to MCF10A, Ratio + anion:no anion” value (HCT116 p53-/-; ratio of SI (MCF 10A), HCT116 p53-/-) was 1, the IC50 (HT-29; HT29, mean of replicates, read-out: Mean IC50) was 169 nM and the IC50 (HT-29; HT29, read-out: Mean IC50 values) was 169 nM. The IC50 (HT-29; HT-29, 96 h, MTT, individual run, read-out: IC50 values for each replicate) was 83 nM and 161 nM and 235 nM and 184 nM and 182 nM, the IC50 (HT-29; HT-29, 96 h, MTT, mean of at least 3 independent experiments, read-out: Mean IC50) was 169 nM and the “Selectivity index (ARPE19)” value (HT-29; IC50 ARPE-19 / IC50 HT29) was 930.47. The “Selectivity index (MCF10A)” value (HT-29; IC50 MCF10A / IC50 HT29) was 956.45, the “Selectivity Index using the NPI non-cancer cell line” value (HT-29; IC50 NP1 / IC50 HT29) was 46.04 and the “SI (ARPE19)” value (HT-29; mean IC50 ARPE-19 / mean IC50 HT-29) was 930.47. For the same molecule, the “SI (MCF10A)” value (HT-29; mean IC50 MCF10A / mean IC50 HT-29) was 956.45, the “SI (NPI)” value (HT-29; mean IC50 NP1 / mean IC50 HT-29) was 46.04 and the “Relative potency … Ratio + anion:no anion” value (HT-29; ratio of IC50, HT29) was 1. The “Selectivity indices relative to ARPE-19, Ratio + anion:no anion” value (HT-29; ratio of SI (ARPE-19), HT29) was 1, the “Selectivity indices relative to MCF10A, Ratio + anion:no anion” value (HT-29; ratio of SI (MCF 10A), HT29) was 1 and the “Selectivity index (ARPE19)” value (MiaPaCa2; IC50 ARPE-19 / IC50 MiaPaCa2) was 2.66. For the same molecule, the “Selectivity index (MCF10A)” value (MiaPaCa2; IC50 MCF10A / IC50 MiaPaCa2) was 2.74, the “Selectivity Index using the NPI non-cancer cell line” value (MiaPaCa2; IC50 NP1 / IC50 MiaPaCa2) was 0.13 and the IC50 (MiaPaCa2; MiaPaCa2, 96 h, MTT, individual run, read-out: IC50 values for each replicate) was 11.9 µM and 15 µM and 16.3 µM. The IC50 (MiaPaCa2; MiaPaCa2, mean of replicates, read-out: Mean IC50) was 59.1 µM, the IC50 (MiaPaCa2; MiaPaCa2, read-out: Mean IC50 values) was 59.1 µM and the IC50 (MiaPaCa2; MiaPaCa2, single replicate, read-out: IC50 values for each replicate) was 52.7 µM and 64.8 µM and 64.5 µM and 54.3 µM. The “SI (ARPE19)” value (MiaPaCa2; mean IC50 ARPE-19 / mean IC50 MiaPaCa2) was 10.90, the “SI (MCF10A)” value (MiaPaCa2; mean IC50 MCF10A / mean IC50 MiaPaCa2) was 11.21 and the “SI (NPI)” value (MiaPaCa2; mean IC50 NP1 / mean IC50 MiaPaCa2) was 0.54. The “Relative potency … Ratio + anion:no anion” value (MiaPaCa2; ratio of IC50, MiaPaCa2) was 1, the “Selectivity indices relative to ARPE-19, Ratio + anion:no anion” value (MiaPaCa2; ratio of SI (ARPE-19), MiaPaCa2) was 1 and the “Selectivity indices relative to MCF10A, Ratio + anion:no anion” value (MiaPaCa2; ratio of SI (MCF 10A), MiaPaCa2) was 1. For the same molecule, the “Selectivity index (ARPE19)” value (PSN1; IC50 ARPE-19 / IC50 PSN1) was 35.39, the “Selectivity index (MCF10A)” value (PSN1; IC50 MCF10A / IC50 PSN1) was 36.38 and the “Selectivity Index using the NPI non-cancer cell line” value (PSN1; IC50 NP1 / IC50 PSN1) was 1.75. For the same molecule, the IC50 (PSN1; PSN1, 96 h, MTT, individual run, read-out: IC50 values for each replicate) was 6.2 µM and 4.88 µM and 2.25 µM, the IC50 (PSN1; PSN1, 96 h, MTT, mean of at least 3 independent experiments, read-out: Mean IC50) was over 1 µM and the IC50 (PSN1; PSN1, mean of replicates, read-out: Mean IC50) was 4.44 µM. The IC50 (PSN1; PSN1, read-out: Mean IC50 values) was 4.44 µM, the “SI (ARPE19)” value (PSN1; mean IC50 ARPE-19 / mean IC50 PSN1) was 35.39 and the “SI (MCF10A)” value (PSN1; mean IC50 MCF10A / mean IC50 PSN1) was 36.38. The “SI (NPI)” value (PSN1; mean IC50 NP1 / mean IC50 PSN1) was 1.75, the “Relative potency … Ratio + anion:no anion” value (PSN1; ratio of IC50, PSN1) was 1 and the “Selectivity indices relative to ARPE-19, Ratio + anion:no anion” value (PSN1; ratio of SI (ARPE-19), PSN1) was 1. For the same molecule, the “Selectivity indices relative to MCF10A, Ratio + anion:no anion” value (PSN1; ratio of SI (MCF 10A), PSN1) was 1.
